Test results: ChEMBL document CHEMBL5291721, “A preclinical secondary pharmacology resource illuminates target-adverse drug reaction associations of marketed drugs” (Nat Commun, 2023)

How the values were obtained:
[1] = biological target: Sodium-dependent dopamine transporter (Homo sapiens, UniProt Q01959)
[2] = biological target: T1, Muscarinic acetylcholine receptor M1 (Homo sapiens, UniProt P11229); assay type: functional, cell-based
T1 sequence (P11229 whole entry): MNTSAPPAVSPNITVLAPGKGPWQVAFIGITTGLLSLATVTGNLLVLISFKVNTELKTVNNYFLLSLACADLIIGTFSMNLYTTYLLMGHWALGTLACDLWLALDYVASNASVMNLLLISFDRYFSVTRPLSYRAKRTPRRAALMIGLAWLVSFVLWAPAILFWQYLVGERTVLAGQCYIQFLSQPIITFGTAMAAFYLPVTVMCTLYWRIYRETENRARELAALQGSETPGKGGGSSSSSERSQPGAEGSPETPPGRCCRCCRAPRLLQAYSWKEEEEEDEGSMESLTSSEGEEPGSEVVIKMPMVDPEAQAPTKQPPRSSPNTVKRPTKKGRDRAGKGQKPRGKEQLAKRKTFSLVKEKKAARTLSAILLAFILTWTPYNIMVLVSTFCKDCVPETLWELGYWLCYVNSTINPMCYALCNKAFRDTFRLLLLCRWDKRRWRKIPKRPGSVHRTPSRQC

[3] = biological target: T2, 5-hydroxytryptamine receptor 2B (Homo sapiens, UniProt P41595); assay type: functional, cell-based
[4] = biological target: Prostaglandin G/H synthase 1 (Homo sapiens, UniProt P23219); assay type: functional
[5] = biological target: T3, 5-hydroxytryptamine receptor 1A (Homo sapiens, UniProt P08908)
T3 sequence (P08908 whole entry): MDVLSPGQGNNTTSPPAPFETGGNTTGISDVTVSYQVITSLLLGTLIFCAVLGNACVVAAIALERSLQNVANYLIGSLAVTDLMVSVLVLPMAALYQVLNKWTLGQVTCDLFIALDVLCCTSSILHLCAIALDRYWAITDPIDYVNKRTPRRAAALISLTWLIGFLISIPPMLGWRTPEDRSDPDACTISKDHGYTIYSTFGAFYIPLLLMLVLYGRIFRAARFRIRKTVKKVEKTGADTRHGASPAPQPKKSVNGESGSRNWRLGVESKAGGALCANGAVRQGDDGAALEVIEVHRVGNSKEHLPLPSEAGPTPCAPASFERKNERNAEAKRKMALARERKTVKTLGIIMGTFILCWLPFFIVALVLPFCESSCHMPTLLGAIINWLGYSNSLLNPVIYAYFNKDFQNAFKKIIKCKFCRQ

D(3) dopamine receptor = D(3) dopamine receptor (Homo sapiens, UniProt P35462)
Histamine H3 receptor = Histamine H3 receptor (Homo sapiens, UniProt Q9Y5N1)
Thromboxane A2 receptor = biological target: T4, Thromboxane A2 receptor (Homo sapiens, UniProt P21731)
T4 sequence (P21731 whole entry): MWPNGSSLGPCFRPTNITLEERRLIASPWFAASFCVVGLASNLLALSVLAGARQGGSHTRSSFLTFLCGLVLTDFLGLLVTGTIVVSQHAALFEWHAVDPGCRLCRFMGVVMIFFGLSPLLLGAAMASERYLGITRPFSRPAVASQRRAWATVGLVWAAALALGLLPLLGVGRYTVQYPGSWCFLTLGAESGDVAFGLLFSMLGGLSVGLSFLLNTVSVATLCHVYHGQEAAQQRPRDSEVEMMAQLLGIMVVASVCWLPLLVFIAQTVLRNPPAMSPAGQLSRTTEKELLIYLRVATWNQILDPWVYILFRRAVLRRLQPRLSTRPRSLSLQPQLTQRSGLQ

Progesterone receptor = biological target: T5, Progesterone receptor (Homo sapiens, UniProt P06401); assay type: functional
T5 sequence (P06401 whole entry): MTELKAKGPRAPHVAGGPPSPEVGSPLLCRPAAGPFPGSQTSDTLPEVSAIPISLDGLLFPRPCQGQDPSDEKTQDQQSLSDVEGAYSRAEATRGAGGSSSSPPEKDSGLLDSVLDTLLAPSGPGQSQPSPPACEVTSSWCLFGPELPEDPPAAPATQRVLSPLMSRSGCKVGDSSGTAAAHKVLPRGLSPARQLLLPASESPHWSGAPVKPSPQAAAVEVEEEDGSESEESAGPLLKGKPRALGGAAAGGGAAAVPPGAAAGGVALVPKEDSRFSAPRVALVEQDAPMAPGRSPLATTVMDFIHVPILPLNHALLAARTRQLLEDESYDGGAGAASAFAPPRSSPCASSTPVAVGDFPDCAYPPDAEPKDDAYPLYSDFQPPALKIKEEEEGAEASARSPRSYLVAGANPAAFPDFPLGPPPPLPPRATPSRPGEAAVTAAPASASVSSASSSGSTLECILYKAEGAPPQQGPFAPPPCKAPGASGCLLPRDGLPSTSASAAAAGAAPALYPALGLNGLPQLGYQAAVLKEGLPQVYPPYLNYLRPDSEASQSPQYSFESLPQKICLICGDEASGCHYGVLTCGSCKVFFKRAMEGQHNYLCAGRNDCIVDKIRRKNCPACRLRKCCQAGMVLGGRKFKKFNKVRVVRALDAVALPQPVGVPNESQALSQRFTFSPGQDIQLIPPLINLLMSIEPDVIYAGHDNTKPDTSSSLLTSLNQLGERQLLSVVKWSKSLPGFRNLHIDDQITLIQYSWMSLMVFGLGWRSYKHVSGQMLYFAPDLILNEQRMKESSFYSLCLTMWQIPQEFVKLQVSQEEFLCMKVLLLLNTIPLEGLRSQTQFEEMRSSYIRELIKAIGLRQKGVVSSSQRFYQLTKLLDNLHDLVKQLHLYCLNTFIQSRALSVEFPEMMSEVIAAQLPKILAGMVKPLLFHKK

Histamine H2 receptor = Histamine H2 receptor (Homo sapiens, UniProt P25021); assay type: functional, cell-based
Melanocortin receptor 4 = Melanocortin receptor 4 (Homo sapiens, UniProt P32245)
[6] = biological target: T2, 5-hydroxytryptamine receptor 2B; assay type: functional, cell-based; remark: listed apart in the source
Note: assay procedure not described here.

Chain of Melanocortin receptor 4 (P32245 whole entry): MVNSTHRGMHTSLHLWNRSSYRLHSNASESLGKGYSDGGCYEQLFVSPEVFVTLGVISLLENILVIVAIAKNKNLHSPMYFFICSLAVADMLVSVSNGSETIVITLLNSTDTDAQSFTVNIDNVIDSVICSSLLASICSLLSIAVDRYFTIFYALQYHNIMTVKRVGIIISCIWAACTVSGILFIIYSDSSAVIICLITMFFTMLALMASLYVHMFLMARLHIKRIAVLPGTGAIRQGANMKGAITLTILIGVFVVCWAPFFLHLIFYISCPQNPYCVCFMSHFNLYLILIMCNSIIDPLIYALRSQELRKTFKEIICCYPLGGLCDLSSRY
Chain of Sodium-dependent dopamine transporter (Q01959 whole entry): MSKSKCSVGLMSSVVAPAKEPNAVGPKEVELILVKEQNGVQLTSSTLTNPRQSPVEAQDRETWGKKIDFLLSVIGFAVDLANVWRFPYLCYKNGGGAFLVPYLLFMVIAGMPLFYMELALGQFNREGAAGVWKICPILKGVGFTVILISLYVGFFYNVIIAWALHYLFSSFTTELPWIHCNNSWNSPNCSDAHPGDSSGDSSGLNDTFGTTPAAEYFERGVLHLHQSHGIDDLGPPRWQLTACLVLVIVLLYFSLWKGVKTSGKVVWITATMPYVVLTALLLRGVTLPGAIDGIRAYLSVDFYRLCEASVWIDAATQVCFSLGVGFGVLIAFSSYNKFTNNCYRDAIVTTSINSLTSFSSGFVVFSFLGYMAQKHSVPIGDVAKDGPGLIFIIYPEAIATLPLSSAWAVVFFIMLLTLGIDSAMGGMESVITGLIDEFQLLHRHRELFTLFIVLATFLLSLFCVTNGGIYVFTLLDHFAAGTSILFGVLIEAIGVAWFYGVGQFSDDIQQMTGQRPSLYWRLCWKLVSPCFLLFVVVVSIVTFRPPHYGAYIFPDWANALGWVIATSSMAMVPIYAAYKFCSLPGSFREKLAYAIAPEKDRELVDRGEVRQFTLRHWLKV
Chain of Prostaglandin G/H synthase 1 (P23219 whole entry): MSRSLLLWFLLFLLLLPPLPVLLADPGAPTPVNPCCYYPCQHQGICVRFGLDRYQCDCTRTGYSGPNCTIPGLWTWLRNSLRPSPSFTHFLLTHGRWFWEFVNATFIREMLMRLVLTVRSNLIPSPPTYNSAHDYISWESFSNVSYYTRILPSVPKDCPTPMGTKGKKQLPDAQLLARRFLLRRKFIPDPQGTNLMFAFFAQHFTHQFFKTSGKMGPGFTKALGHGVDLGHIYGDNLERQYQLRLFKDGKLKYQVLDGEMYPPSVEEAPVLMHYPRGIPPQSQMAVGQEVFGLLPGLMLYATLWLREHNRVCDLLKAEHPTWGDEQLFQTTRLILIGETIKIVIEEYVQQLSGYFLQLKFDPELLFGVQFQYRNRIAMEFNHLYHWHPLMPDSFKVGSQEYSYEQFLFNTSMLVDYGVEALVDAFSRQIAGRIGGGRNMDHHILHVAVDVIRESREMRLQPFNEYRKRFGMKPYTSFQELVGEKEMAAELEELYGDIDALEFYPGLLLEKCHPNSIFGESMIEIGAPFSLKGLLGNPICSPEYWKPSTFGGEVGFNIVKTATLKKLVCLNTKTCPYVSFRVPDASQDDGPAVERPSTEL
Chain of D(3) dopamine receptor (P35462 whole entry): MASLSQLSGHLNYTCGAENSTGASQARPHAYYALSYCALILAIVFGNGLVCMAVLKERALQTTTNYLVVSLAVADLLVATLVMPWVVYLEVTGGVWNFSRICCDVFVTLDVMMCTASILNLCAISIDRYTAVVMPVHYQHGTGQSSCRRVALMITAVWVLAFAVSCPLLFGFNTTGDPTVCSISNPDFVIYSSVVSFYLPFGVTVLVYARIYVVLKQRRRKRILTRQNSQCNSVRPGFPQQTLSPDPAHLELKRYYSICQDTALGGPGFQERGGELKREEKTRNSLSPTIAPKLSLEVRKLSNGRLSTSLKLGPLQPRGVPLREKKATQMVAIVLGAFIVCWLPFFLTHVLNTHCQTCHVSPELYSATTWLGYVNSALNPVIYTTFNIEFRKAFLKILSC
T2 sequence (P41595 whole entry): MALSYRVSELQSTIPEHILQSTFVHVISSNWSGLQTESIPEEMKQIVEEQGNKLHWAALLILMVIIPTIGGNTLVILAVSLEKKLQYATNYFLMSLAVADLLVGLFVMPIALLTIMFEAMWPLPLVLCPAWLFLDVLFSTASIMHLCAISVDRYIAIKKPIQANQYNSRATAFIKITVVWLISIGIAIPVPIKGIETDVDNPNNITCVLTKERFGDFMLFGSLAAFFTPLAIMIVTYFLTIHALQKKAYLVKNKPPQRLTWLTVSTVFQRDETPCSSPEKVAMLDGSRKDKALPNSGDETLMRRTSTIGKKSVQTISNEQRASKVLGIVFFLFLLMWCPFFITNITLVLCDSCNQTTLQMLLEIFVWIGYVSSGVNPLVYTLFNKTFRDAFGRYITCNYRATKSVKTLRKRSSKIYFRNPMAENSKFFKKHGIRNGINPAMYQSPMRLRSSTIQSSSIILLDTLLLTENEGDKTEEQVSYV
Chain of Histamine H3 receptor (Q9Y5N1 whole entry): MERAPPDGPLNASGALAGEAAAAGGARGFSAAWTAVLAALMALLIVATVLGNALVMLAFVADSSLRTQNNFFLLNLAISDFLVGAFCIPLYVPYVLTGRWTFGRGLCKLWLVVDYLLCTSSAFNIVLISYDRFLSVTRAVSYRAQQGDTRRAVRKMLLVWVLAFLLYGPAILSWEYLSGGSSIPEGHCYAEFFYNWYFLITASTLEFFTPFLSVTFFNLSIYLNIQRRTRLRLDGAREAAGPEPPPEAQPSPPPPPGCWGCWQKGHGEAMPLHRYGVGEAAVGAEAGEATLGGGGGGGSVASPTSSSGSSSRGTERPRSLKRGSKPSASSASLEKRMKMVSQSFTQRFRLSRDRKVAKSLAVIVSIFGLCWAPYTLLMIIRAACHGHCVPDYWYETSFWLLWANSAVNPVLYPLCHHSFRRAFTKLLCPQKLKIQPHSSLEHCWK
Chain of Histamine H2 receptor (P25021 whole entry): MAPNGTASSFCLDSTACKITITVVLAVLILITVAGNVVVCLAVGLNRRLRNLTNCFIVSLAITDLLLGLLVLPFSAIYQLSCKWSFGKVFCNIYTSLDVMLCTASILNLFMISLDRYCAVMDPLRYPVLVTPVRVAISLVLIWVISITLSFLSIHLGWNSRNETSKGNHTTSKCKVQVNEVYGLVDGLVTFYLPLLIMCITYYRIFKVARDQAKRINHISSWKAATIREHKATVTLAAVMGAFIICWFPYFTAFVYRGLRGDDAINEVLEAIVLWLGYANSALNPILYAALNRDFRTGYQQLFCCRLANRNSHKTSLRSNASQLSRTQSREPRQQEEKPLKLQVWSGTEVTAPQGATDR

SMILES	AC50 [1]	AC50 [2]	AC50 [3]	AC50 [4]	AC50 [5]	AC50 (D(3) dopamine receptor)	AC50 (Histamine H3 receptor)	AC50 (Thromboxane A2 receptor)	AC50 (Progesterone receptor)	AC50 (Histamine H2 receptor)	AC50 (Melanocortin receptor 4)	AC50 [6]
CN(C)S(=O)(=O)c1ccc2c(c1)N(CCCN1CCC(CCO)CC1)c1ccccc1S2 [PIPOTIAZINE]	8.9 µM	> 30 µM	> 30 µM	> 30 µM	0.32 µM	0.003 µM	> 30 µM					
Nc1nc(NC2CC2)c2ncn([C@H]3C=C[C@@H](CO)C3)c2n1 [ABACAVIR]								> 30 µM	> 30 µM	> 30 µM		
C[C@H]1CNCCc2ccc(Cl)cc21 [LORCASERIN]									> 30 µM			
C[C@]12CC[C@@H]3c4ccc(O)cc4CC[C@H]3[C@@H]1C[C@@H](O)[C@@H]2O [ESTRIOL]	28.7 µM		> 30 µM	> 30 µM	> 30 µM	> 30 µM	> 30 µM					
Cc1cn([C@H]2C[C@H](N=[N+]=[N-])[C@@H](CO)O2)c(=O)[nH]c1=O [ZIDOVUDINE]	> 30 µM		> 30 µM	> 30 µM	> 30 µM	> 30 µM	> 30 µM	> 30 µM		> 10 µM	> 30 µM	> 10 µM
CCCCCCOc1nsnc1C1=CCCN(C)C1 [XANOMELINE]	3.37 µM		> 30 µM	> 30 µM	0.243 µM	0.273 µM	3.6 µM					
CN1C(C(=O)Nc2ccccn2)=C(O)c2sc(Cl)cc2S1(=O)=O [LORNOXICAM]								> 30 µM		> 10 µM	> 30 µM	> 10 µM
CCc1oc2ccccc2c1C(=O)c1cc(I)c(O)c(I)c1 [BENZIODARONE]	9.96 µM		> 30 µM	29.8 µM	12.4 µM	8.59 µM	28.3 µM					
Cc1c(C(=O)NN2CCCCC2)nn(-c2ccc(Cl)cc2Cl)c1-c1ccc(Cl)cc1 [RIMONABANT]								18.6 µM	> 30 µM	> 10 µM	28.2 µM	14 µM
O=C(CCNNC(=O)c1ccncc1)NCc1ccccc1 [NIALAMIDE]	> 30 µM	> 30 µM	> 30 µM	1.65 µM	> 30 µM	> 30 µM	> 30 µM					
C[N+]1(C)CCC(OC(=O)C(O)(c2ccccc2)C2CCCC2)C1 (stereo unspecified) [GLYCOPYRRONIUM BROMIDE]								> 30 µM	> 10 µM		> 30 µM	
CC(=O)N[C@@H]1[C@@H](O)[C@H](O)[C@@H](CO)O[C@H]1O [N-ACETYLGLUCOSAMINE]	> 30 µM	> 30 µM	> 30 µM	> 30 µM	> 30 µM	> 30 µM	> 30 µM					
c1cnc(N2CCN(Cc3ccc4c(c3)OCO4)CC2)nc1 [PIRIBEDIL]									> 30 µM			2.3 µM
CNC(=O)c1ccccc1Sc1ccc2c(/C=C/c3ccccn3)n[nH]c2c1 [AXITINIB]								8.66 µM	> 30 µM			> 30 µM
COCc1c(C(C)C)nc(C(C)C)c(/C=C/[C@@H](O)C[C@@H](O)CC(=O)O)c1-c1ccc(F)cc1 [CERIVASTATIN]	> 30 µM		> 30 µM	> 30 µM	> 30 µM	> 30 µM	> 30 µM					
COC(c1ccccc1)(c1ccccc1)[C@H](Oc1nc(C)cc(C)n1)C(=O)O [AMBRISENTAN]	> 30 µM	> 30 µM	> 30 µM	> 30 µM	> 30 µM	> 30 µM	> 30 µM					

SMILES	AC50 [1]	AC50 [2]	AC50 [3]	AC50 [4]	AC50 [5]	AC50 (D(3) dopamine receptor)	AC50 (Histamine H3 receptor)	AC50 (Thromboxane A2 receptor)	AC50 (Progesterone receptor)	AC50 (Histamine H2 receptor)	AC50 (Melanocortin receptor 4)	AC50 [6]
C[N+](C)(C)CCO [CHOLINE]	> 30 µM		> 30 µM	> 30 µM	> 30 µM	> 30 µM	> 30 µM					
CC(C)(S)[C@@H](N)C(=O)O [PENICILLAMINE]	> 30 µM		> 30 µM		> 30 µM	> 30 µM	> 30 µM					
CN(C)CCC=C1c2ccccc2C(C)(C)c2ccccc21									> 30 µM			4.34 µM
COc1ccc(CC(C)(C)NC[C@H](O)c2cc(O)cc3c2OCC(=O)N3)cc1 [OLODATEROL]									> 30 µM			6.65 µM
CCC(=O)NCC[C@@H]1CCc2ccc3c(c21)CCO3 [RAMELTEON]	> 30 µM	> 30 µM	> 30 µM	> 30 µM	> 30 µM	> 30 µM	> 30 µM					
N[C@@H]1[C@H]2CN(c3nc4c(cc3F)c(=O)c(C(=O)O)cn4-c3ccc(F)cc3F)C[C@@H]12 [TROVAFLOXACIN]									> 30 µM			> 30 µM
CNC1Cc2ccccc2N(C)c2ccccc21 (stereo unspecified) [METAPRAMINE]									> 30 µM			
COc1cc(NC(C)CCCN)c2ncccc2c1 (stereo unspecified) [PRIMAQUINE]								> 30 µM	20 µM			
CC(=O)NCCCS(=O)(=O)O [ACAMPROSATE]								> 30 µM	> 30 µM	> 30 µM		> 30 µM
Cc1nc([N+](=O)[O-])cn1-c1ccc([N+](=O)[O-])cc1 [NITREFAZOLE]								> 30 µM	> 30 µM	> 30 µM		> 30 µM
COc1cc2nc(N(C)CCCNC(=O)C3CCCO3)nc(N)c2cc1OC (stereo unspecified) [ALFUZOSIN]								> 30 µM	> 30 µM	> 30 µM		> 30 µM
CCC1=C(C)CN(C(=O)NCCc2ccc(S(=O)(=O)NC(=O)N[C@H]3CC[C@H](C)CC3)cc2)C1=O [GLIMEPIRIDE]	> 30 µM		> 30 µM	> 30 µM	> 30 µM	> 30 µM	> 30 µM					
CC(=O)Nc1ccc(O)cc1 [ACETAMINOPHEN]	> 30 µM		> 30 µM		> 30 µM	> 30 µM	> 30 µM		> 30 µM			> 30 µM
C1CCC(C(CC2CCCCN2)C2CCCCC2)CC1 (stereo unspecified) [PERHEXILINE]									> 30 µM			
CN(C)CC(c1ccc(O)cc1)C1(O)CCCCC1 (stereo unspecified) [DESVENLAFAXINE]		> 30 µM	> 30 µM	> 30 µM	> 30 µM		> 30 µM					
